Values joined by “and” are separate entries in the source; they are usually repeats but may differ in a detail not shown here. Identical values can stand only once.
System: coronary patients
Experiment: SPECT imaging study, summed difference scores (Example 2, Phase II)
Format: in vivo, human
Set-up: key: SDS = SSS − SRS; summed 17-segment scores, each segment 0–4
Details: Series I sequential: SC = dipyridamole 40 μg/kg bolus then adenosine 70 μg/kg/min 4 min; Adenoscan 140 μg/kg/min; 10 patients
Text: The study was a mono-center, single-blind, 2-arm, cross-over trial.
Only those patients in whom an ischemic zone was detected were declared eligible for the second test, and were enrolled in the study if other inclusion criteria were satisfied.
SPECT images were acquired as per the standard approach performed the preceding week.
Since thallium is currently deemed the best isotope to test myocardial viability at rest, and sestamibi the best isotope to detect myocardial defects under stress conditions, a dual isotope myocardial scintigraphy technique was used for this study. The isotope was injected after a 3 minute infusion with Adenoscan or after a 2.5 minute infusion with the combination. […]
Randomization of SPECT images, and their analysis by two blinded readers, took place every 10 patients. Anonymous and randomized images were assessed using the standard 17-segment model and the semi-quantitative visual score method on a 5-point scale (from 0 to 4). An additional totally computerized quantitative method was performed using the validated CardioGam software (Segami Corp.). All images were interpreted and quantified automatically by the software calculation package. […]
Summed stress scores (with Adenosine or with Adenosoft) were defined as SSS, summed rest scores (Thallium) as SRS and summed difference scores as SDS=SSS-SRS. […] If >2, images were read again by a third independent expert. […]

## Nc1ncnc2c1ncn2[C@@H]1O[C@H](CO)[C@@H](O)[C@H]1O [adenosine]
  SDS (summed difference scores), individual patients: 5 (5×) and 4 (2×) and 14 and 13 and 7

— patent US20090185973A1, “METHODS, COMPOSITIONS, UNIT DOSAGE FORMS, AND KITS FOR PHARMACOLOGIC STRESS TESTING WITH REDUCED SIDE EFFECTS” (ADENOBIO N.V., priority 2008, published 2009)
